Results as given in PMC9951859, “Investigation of α,ω-Disubstituted Polyamine-Cholic Acid Conjugates Identifies Hyodeoxycholic and Chenodeoxycholic Scaffolds as Non-Toxic, Potent Antimicrobials” (Antibiotics, 2023).
In brackets after ≈: the same amount, converted by molar mass. Several values for one entry are separate records, joined by “and”; a condition that tells them apart may be missing. Identical values can stand only once. Entries after “also recorded” stand apart in the source; their conditions may differ. Like-named read-outs stand apart in the source and are kept apart here.

What was measured:
[1] = tested on: human red blood cells; test: Hemolytic assay; format: cell-based; conditions: concentration at 10% hemolytic activity on human red blood cells, mean (n = 2), top dose tested 32 μg/mL
Method: Hemolytic assays were conducted using the protocols previously reported.

[2] = tested on: S. aureus MRSA (CF-Marseille); test: Minimum bactericidal concentration test, S. aureus MRSA (CF-Marseille); format: cell-based, Staphylococcus aureus
Method: (§1) A pure culture of a specified microorganism was grown overnight, then diluted in growth-supporting broth (typically Mueller Hinton II broth) to a concentration between 1 × 10^5 and 1 × 10^6 CFU/mL. A stock dilution of the antimicrobial test compound was made at approximately 100 times the expected, previously determined MIC. Further 1:1 dilution was made in 96 well microtiter plates. All dilutions of the test compound were inoculated with equal volumes of the specified microorganism (typically 100 µL). […] An aliquot of the positive control was plated and used to establish a baseline concentration of the microorganism used. The microtiter plates were then incubated at 37 °C for 24 h. Turbidity indicates growth of the microorganism, and the MIC is the lowest concentration where no growth was visually observed. To determine the minimum bactericidal concentration (MBC), the dilution representing the MIC and at least two of the more concentrated test product dilutions was plated on a solidified agar plate to determine the bacterial viability. The MBC is the lowest concentration where no growth is encountered when compared to the MIC dilution.

[3] = tested on: E. coli ATCC 25922; test: Antibiotic enhancement of erythromycin; format: cell-based, Escherichia coli; conditions: erythromycin at 2 μg/mL
Method: (§2) Restoring enhancer concentrations were determined with an inoculum of 5 × 10^5 CFU in […] of MH broth containing two-fold serial dilutions of each derivative in the presence of either doxycycline or erythromycin at 2 μg/mL. […] These measurements were independently repeated in triplicate.

[4] = tested on: S. aureus MRSA (CF-Marseille); test: Real time growth curves, S. aureus MRSA (CF-Marseille); format: cell-based, Staphylococcus aureus; conditions: BHI, 1 to 19 h, at 3.2 μM (4 µg/mL) and 12.7 μM (16 µg/mL)
Method: (§3) Solutions of compound 7e at concentrations of 2, 4 and 16 µg/mL were tested each in triplicate against S. aureus ATCC 25923, S. aureus MRSA (CF-Marseille) and Bacillus cereus ATCC 11778. Typically, in a 96 well plate was placed 10 µL of 40, 80 and 320 µg/mL stock solutions of compound 7e as well as 190 µL of a 5 × 10^5 CFU/mL of the selected bacterial suspension in brain heart infusion (BHI) broth. Positive controls containing only 200 µL of a 5 × 10^5 CFU/mL of bacterial suspension in BHI and negative controls containing only 200 µL of BHI broth were added. The plate was incubated at 37 °C in a TECAN Spark Reader […] and real time bacterial growth was followed with OD590 nm measurements every 10 min during 19 h.

[5] = tested on: S. aureus; test: ATP release bioluminescence assay; format: cell-based, Staphylococcus aureus; conditions: followed over 30 min after exposure, CTAB (1%) positive control
Method: Solutions of the test compound 7e were prepared in DMSO at various concentrations. A suspension of growing S. aureus to be studied in Muller-Hinton II broth was prepared and incubated at 37 °C. An aliquot (90 µL) of this suspension was added to 10 µL of test compound solution and vortexed for 10 s. Luciferin–luciferase reagent (Yelen, France; 50 µL) was immediately added to this mixture, and luminescent signal quantified with an Infinite M200 microplate reader (Tecan) over a 30 min period; ATP concentration was quantified using internal sample addition. A similar procedure was used for the CTAB positive control.

[6] = tested on: Staphylococcus aureus ATCC 43300 (MRSA); test: Antimicrobial MIC assay (CO-ADD) against S. aureus MRSA; format: cell-based; conditions: Staphylococcus aureus, read-out: MIC S.a.
From the text: (§4) Antimicrobial evaluation against S. aureus (MRSA) (ATCC 43300), E. coli (ATCC 25922), K. pneumoniae (ATCC 700603), A. baumannii (ATCC 19606), C. albicans (ATCC 90028), and C. neoformans (ATCC 208821) was undertaken at the Community for Open Antimicrobial Drug Discovery at The University of Queensland (Australia) according to their standard protocols as reported previously.

[7] = tested on: Cryptococcus neoformans ATCC 208821; test: Antimicrobial MIC assay (CO-ADD) against C. neoformans; format: cell-based
From the text: as §4

[8] = tested on: Klebsiella pneumoniae ATCC 700603; test: Antimicrobial MIC assay (CO-ADD) against K. pneumoniae; format: cell-based
From the text: as §4

[9] = tested on: Bacillus cereus ATCC 11778; test: Real time growth curves, Bacillus cereus; format: cell-based
Method: as §3

[10] = tested on: Bacillus cereus ATCC 11778; test: Minimum bactericidal concentration test, Bacillus cereus; format: cell-based
Method: as §1

[11] = tested on: P. aeruginosa ATCC 27853; test: Antibiotic enhancement of doxycycline; format: cell-based, Pseudomonas aeruginosa; conditions: doxycycline at 2 μg/mL
Method: as §2

[12] = tested on: Bacillus cereus ATCC 11778; test: Broth microdilution MIC (CA-SFM), Bacillus cereus; format: cell-based; conditions: ATCC11778; classical microdilution, Bacillus cereus ATCC 11778, 18 h at 37 °C
Method: (§5) Additional antimicrobial evaluation against S. aureus (ATCC 25923), S. aureus MRSA (CF-Marseille) and Bacillus cereus (ATCC 11778) was determined in microplates using the standard broth dilution method in accordance with the recommendations of the Comité de l’AntibioGramme de la Société Française de Microbiologie (CA-SFM). Briefly, the minimal inhibitory concentrations (MICs) were determined with an inoculum of 10^5 CFU in 200 µL of MHB containing two-fold serial dilutions of each drug. […] To determine all MICs, the measurements were independently repeated in triplicate.

[13] = tested on: Pseudomonas aeruginosa ATCC 27853; test: Antimicrobial MIC assay (CO-ADD) against P. aeruginosa; format: cell-based
[14] = tested on: Candida albicans ATCC 90028; test: Antimicrobial MIC assay (CO-ADD) against C. albicans; format: cell-based; conditions: mean (n = 2)
From the text: as §4

[15] = tested on: S. aureus MRSA (CF-Marseille); test: Broth microdilution MIC (CA-SFM), S. aureus MRSA (CF-Marseille); format: cell-based; conditions: Staphylococcus aureus, 18 h
Method: as §5

[16] = tested on: Escherichia coli ATCC 25922; test: Antimicrobial MIC assay (CO-ADD) against E. coli; format: cell-based
From the text: as §4

[17] = tested on: S. aureus ATCC 25923; test: Broth microdilution MIC (CA-SFM), S. aureus ATCC 25923; format: cell-based; conditions: Staphylococcus aureus, ATCC25923; classical microdilution, S. aureus ATCC 25923, 18 h at 37 °C
Method: as §5

[18] = tested on: Acinetobacter baumannii ATCC 19606; test: Antimicrobial MIC assay (CO-ADD) against A. baumannii; format: cell-based
From the text: as §4

[19] = tested on: S. aureus ATCC 25923; test: Minimum bactericidal concentration test, S. aureus ATCC 25923; format: cell-based, Staphylococcus aureus
Method: as §1

[20] = tested on: S. aureus ATCC 25923; test: Real time growth curves, S. aureus ATCC 25923; format: cell-based, Staphylococcus aureus
Method: as §3

[21] = Cytotoxicity assay on HEK293; format: cell-based, human; conditions: human, concentration at 50% cytotoxicity on HEK293, mean (n = 2), top dose tested 32 μg/mL
Method: (§6) Cytotoxicity assays were conducted using the protocols previously reported.

[22] = tested on: B lymphoma Wehi-231 cells; parameters: method as in PMID 19883637; conditions: read-out: EC50 for propidium iodide entry; cited from earlier work
[23] = tested on: HEK293 human embryonic kidney cells; test: Cytotoxicity assay on HEK293; format: cell-based; conditions: concentration at 50% cytotoxicity on HEK293; mean (n = 2); top dose tested 32 μg/mL
Method: as §6

[24] = tested on: erythrocytes; parameters: method as in PMID 11806717; conditions: hemolytic activity; read-out: EC50 for hemoglobin release from erythrocytes; cited from earlier work

Q: What does the source list for C[C@H](CCC(=O)NCCCNCCCCCCCCCCNCCCNC(=O)CC[C@@H](C)[C@H]1CC[C@H]2[C@@H]3C[C@H](O)[C@@H]4C[C@H](O)CC[C@]4(C)[C@H]3CC[C@]12C)[C@H]1CC[C@H]2[C@@H]3C[C@H](O)[C@@H]4C[C@H](O)CC[C@]4(C)[C@H]3CC[C@]12C.O=C(O)C(F)(F)F.O=C(O)C(F)(F)F [Compound 7e, N^1,N^10-Bis(3-((R)-4-((3R,5R,6S,8S,9S,10R,13R,14S,17R)-3,6-dihydroxy-10,13-dimethylhexadecahydro-1H-cyclopenta[a]phenanthren-17-yl)pentanamido)propyl)decane-1,10-diaminium 2,2,2-trifluoroacetate]?
A: Hemolysis (HC10) [1]: >25 µM; MBC/MIC ratio ([2]; S. aureus MRSA (CF-Marseille) (one of three Gram-positive strains)): approximately one; minimum bactericidal concentration (MBC) ([2]; S. aureus MRSA (CF-Marseille), stated relative to MIC (3.2 μM, 4 μg/mL)): The same values were observed; enhancement of antibiotic activity of erythromycin [3]: No enhancement was observed; real time growth inhibition (OD 590 nm) [4]: inhibited all three strains; ATP release (extracellular ATP, bioluminescence) [5]: inability of 7e to induce ATP release; also recorded: failed to cause ATP release; MIC [6]: ≤ 0.2 µM; MIC ([7]; Cryptococcus neoformans, ATCC208821, read-out: MIC C.n.): 0.8 µM; MIC ([8]; Klebsiella pneumoniae, ATCC700603, read-out: MIC K.p.): > 25 µM; time after which growth was exhibited ([9]; B. cereus, BHI, lowest tested concentration 1.6 μM (2 µg/mL)): 10 h; real time growth inhibition (OD 590 nm) ([9]; Bacillus cereus ATCC 11778, BHI, 1 to 19 h, at 3.2 μM (4 µg/mL) and 12.7 μM (16 µg/mL)): inhibited all three strains; MBC/MIC ratio ([10]; Bacillus cereus ATCC 11778 (one of three Gram-positive strains)): approximately one; minimum bactericidal concentration (MBC) ([10]; Bacillus cereus ATCC 11778, stated relative to MIC (3.2 μM, 4 μg/mL)): The same values were observed; enhancement of antibiotic activity of doxycycline [11]: No enhancement was observed; MIC [12]: 3.2 µM and 4 µg/mL; MIC ([13]; Pseudomonas aeruginosa, ATCC27853, read-out: MIC P.a.): > 25 µM; MIC ([14]; Candida albicans, ATCC90028, read-out: MIC C.a., Candida albicans ATCC 90028): ≤ 0.2 µM; MIC [15]: 3.2 µM and 4 µg/mL; MIC ([16]; Escherichia coli, ATCC25922, read-out: MIC E.c.): > 25 µM; MIC [17]: 1.6 µM and 2 µg/mL; MIC ([18]; Acinetobacter baumannii, ATCC19606, read-out: MIC A.b.): > 25 µM; MBC/MIC ratio ([19]; S. aureus ATCC 25923 (one of three Gram-positive strains)): approximately one; minimum bactericidal concentration (MBC) ([19]; S. aureus ATCC 25923, stated relative to MIC (1.6 μM, 2 μg/mL)): The same values were observed; time after which growth was exhibited ([20]; S. aureus (strain not stated), BHI, lowest tested concentration 1.6 μM (2 µg/mL)): 13 h; real time growth inhibition (OD 590 nm) ([20]; S. aureus ATCC 25923, BHI, 1 to 19 h, at 3.2 μM (4 µg/mL) and 12.7 μM (16 µg/mL)): inhibited all three strains; IC50 ([21]; HEK293 human embryonic kidney cells): > 25 µM

Q: With CC(C)[C@@H](CC[C@@H](C)[C@H]1CC[C@H]2[C@@H]3[C@H](O)C[C@H]4C[C@@H](NCCCNCCCCN)CC[C@]4(C)[C@H]3CC[C@]12C)OS(=O)(=O)O [Compound 1, Squalamine, reference compound] as the compound, how does the “Hemolysis (HC10)” value [1] read?
A: >36 µM

Q: And the “Hemolysis (HC10)” value ([1]; listed as squalamine)?
A: lack of toxicity indicators

Q: And the EC50 [22]?
A: 51 µM

Q: And the MIC ([7]; ATCC208821, Cryptococcus neoformans ATCC 208821, mean (n = 2), read-out: MIC C.n.)?
A: 0.56 µM (≈ 0.352 µg/mL)

Q: What about the MIC ([8]; ATCC700603, Klebsiella pneumoniae ATCC 700603, mean (n = 2), read-out: MIC K.p.) of the same compound?
A: ≤ 0.28 µM

Q: What about the MIC ([8]; Klebsiella pneumoniae ATCC 700603, mean (n = 2), read-out: MIC K.p.) of the same compound?
A: ≤0.28 µM

Q: What about the MIC ([13]; ATCC27853, Pseudomonas aeruginosa ATCC 27853, mean (n = 2), read-out: MIC P.a.) of the same compound?
A: 18 µM (≈ 11.3 µg/mL)

Q: What about the MIC ([14]; ATCC90028, Candida albicans ATCC 90028, read-out: MIC C.a.) of the same compound?
A: 4.5 µM (≈ 2.83 µg/mL)

Q: And the MIC ([16]; ATCC25922, Escherichia coli ATCC 25922, mean (n = 2), read-out: MIC E.c.)?
A: ≤ 0.28 µM

Q: What about the MIC ([16]; Escherichia coli ATCC 25922, mean (n = 2), read-out: MIC E.c.) of the same compound?
A: ≤0.28 µM

Q: And the MIC ([18]; ATCC19606, Acinetobacter baumannii ATCC 19606, mean (n = 2), read-out: MIC A.b.)?
A: ≤ 0.28 µM

Q: And the MIC ([18]; Acinetobacter baumannii ATCC 19606, mean (n = 2), read-out: MIC A.b.)?
A: ≤0.28 µM

Q: And the IC50 [21]?
A: > 36 µM

Q: What about the “Cytotoxicity (IC50)” value [23] of the same compound?
A: lack of toxicity indicators

Q: And the EC50 [24]?
A: 80 µM
